{"source": "patent US10933132B2", "about": "“Combination of epigenetic factors and bispecific compounds targeting CD33 and CD3 in the treatment of myeloid leukemia” (AMGEN RESEARCH (MUNICH) GMBH, priority 2013, dated 2021)", "key": {"HL-60 AML cells": {"test_system": "HL-60 AML cells", "test": "Hydroxyurea up-regulation of CD33 on AML cell lines, flow cytometry", "assay_type": "cell-based", "settings": "for CD33 MFI Ratio: day 3, untreated 134.9", "protocol": "(§1) AML cell lines HL-60, PL21, OCI-AML3, KG1a and MV4-11 were seeded in 24-well plates at 1×10^6 cells/ml on day 0. Cells were either left untreated (UT) or treated with 10 μM (H1) or 100 μM (H2) hydroxyurea (Sigma) for three consecutive days (day 0, day 1 and day 2). On day 3, cells were harvested, counted and analyzed for changes in CD33 surface expression level by flow cytometry."}, "PL21 AML cells": {"test_system": "PL21 AML cells", "test": "Hydroxyurea up-regulation of CD33 on AML cell lines, flow cytometry", "assay_type": "cell-based", "settings": "for CD33 MFI Ratio: day 3, untreated 166.9", "protocol": "as §1"}, "primary AML cells": {"test_system": "primary AML cells", "test": "Hydroxyurea up-regulation of CD33 on primary AML cells, flow cytometry", "assay_type": "cell-based", "protocol": "Three primary AML samples were seeded in a 12-well plates at 1×10^6 cells/ml, as previously described (Krupka, Subklewe et. al, Blood 2014). Cells were either left untreated (UT) or treated with 10 μM (H1) or 100 μM (H2) hydroxyurea (Sigma) for three consecutive days (day 0, day 1 and day 2). On day 1-day 3, cells were harvested, counted and analyzed for changes in CD33 surface expression by flow cytometry."}, "CD33": {"molecular_target": "T1, CD33 (Homo sapiens, UniProt P20138)", "T1 construct": "myeloid differentiation antigen found on AML blasts in most patients; host or cells: AML patients (endogenous CD33 on blasts)", "T1 sequence (P20138 18-364)": "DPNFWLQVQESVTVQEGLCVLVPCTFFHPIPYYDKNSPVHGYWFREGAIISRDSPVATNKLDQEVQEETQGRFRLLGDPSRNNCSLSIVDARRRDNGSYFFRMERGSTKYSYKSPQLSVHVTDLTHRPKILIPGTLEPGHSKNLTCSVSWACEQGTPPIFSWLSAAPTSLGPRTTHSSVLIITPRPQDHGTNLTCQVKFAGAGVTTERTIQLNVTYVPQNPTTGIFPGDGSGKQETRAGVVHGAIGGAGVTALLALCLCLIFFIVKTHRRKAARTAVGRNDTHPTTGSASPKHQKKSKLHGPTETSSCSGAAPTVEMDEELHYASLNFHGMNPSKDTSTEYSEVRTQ", "settings": "cited from earlier work"}, "OCI-AML3 cells": {"test_system": "OCI-AML3 cells", "test": "AMG 330-induced cytotoxicity with healthy donor T-cells (DAPI, 48 h) after epigenetic drug pretreatment", "assay_type": "cell-based, human", "settings": "3-day pretreatment, relative to untreated cells", "experimental": "Parental OCI-AML3 and KG-1a cells were either left untreated or pretreated with panobinostat for 72 hours. […] 48 hours later, cell counts were determined and cytotoxicity was assessed with DAPI staining to quantify drug-specific cytotoxicity. Results are shown as mean±SEM from 3 independent experiments performed in duplicate wells using a single healthy donor as source for exogenous T-cells.\n(§2) For the experimental settings mononuclear cells were collected from healthy adult volunteers via leukapheresis, and T cells enriched through magnetic cell sorting (Pan T Cell Isolation Kit II; Miltenyi Biotec, Auburn, Calif.). Thawed cell aliquots were labeled with 3 μM CellVue Burgundy (eBioscience, San Diego, Calif.) according to the manufacturer's instructions.\n(§3) For the quantification of compound induces cytotoxicity AML cells were taken during exponential growth and incubated at 37° C. […] After 48 hours, cell numbers and drug-induced cytotoxicity, using 4′,6-diamidino-2-phenylindole (DAPI) to detect non-viable cells, were determined using a LSRII flow cytometer (BD Biosciences, San Jose, Calif.) and analyzed with FlowJo (Tree Star, Ashland, Oreg.). AML cells were identified by forward/side scatter properties and negativity for CellVue Burgundy dye."}, "KG-1a cells [1]": {"test_system": "KG-1a cells", "test": "AMG 330-induced cytotoxicity with healthy donor T-cells (DAPI, 48 h) after epigenetic drug pretreatment", "settings": "3-day pretreatment, relative to untreated cells", "experimental": "Parental OCI-AML3 and KG-1a cells were either left untreated or pretreated with panobinostat for 72 hours. […] 48 hours later, cell counts were determined and cytotoxicity was assessed with DAPI staining to quantify drug-specific cytotoxicity.\nParental KG-1a cells were either left untreated or pretreated with azacitidine for 72 hours. […] 48 hours later, cell counts were determined and cytotoxicity was assessed with DAPI staining to quantify drug-specific cytotoxicity.\nas §2, §3"}, "KG-1a cells [2]": {"test_system": "KG-1a cells", "test": "CD33 expression by flow cytometry (PE anti-CD33 P67.6) after pretreatment with epigenetic drug", "assay_type": "cell-based, human", "settings": "3-day pretreatment, relative to untreated", "text": "CD33 expression on parental AML cells and cell lines was quantified by flow cytometry using a phycoerythrin (PE)-conjugated anti-CD33 antibody (clone P67.6; BD Biosciences, San Jose, Calif., USA) (see Walter et al. Blood. 2005; 105(3):1295-1302)."}, "AML target cells": {"test_system": "AML target cells", "settings": "co-therapy of lintuzumab and 5-azacytidine; cited from earlier work"}, "AML cells or macrophages": {"test_system": "AML cells or macrophages", "settings": "incubation of AML cells or macrophages; cited from earlier work"}, "[3]": {"molecular_target": "T2, CD19 B-cell surface antigen and CD3 (Homo sapiens, UniProt P07766+P15391)", "T2 construct": "host or cells: patients (endogenous CD19 on B cells, CD3 epsilon on T cells)", "settings": "patients with B-cell lymphomas and B precursor ALL; cited from earlier work"}}, "data": [{"molecule": "NC(=O)NO", "note": "[hydroxyurea, Hydroxyurea]", "values": [{"measurement": "CD33 MFI Ratio", "setting": "HL-60 AML cells; HL-60, H1 = 10 μM hydroxyurea on three consecutive days", "result": 171.3}, {"measurement": "CD33 MFI Ratio", "setting": "HL-60 AML cells; HL-60, H2 = 100 μM hydroxyurea on three consecutive days", "result": 210.0}, {"measurement": "upregulation of CD33 (in words)", "setting": "HL-60 AML cells; HL-60 AML cells, 10 and 100 μM", "result": "upregulation of CD33"}, {"measurement": "CD33 MFI Ratio", "setting": "PL21 AML cells; PL21, H1 = 10 μM hydroxyurea on three consecutive days", "result": 177.9}, {"measurement": "CD33 MFI Ratio", "setting": "PL21 AML cells; PL21, H2 = 100 μM hydroxyurea on three consecutive days", "result": 191.8}, {"measurement": "upregulation of CD33 (in words)", "setting": "PL21 AML cells; PL21 AML cells, 10 and 100 μM", "result": "upregulation of CD33"}, {"measurement": "CD33 MFI Ratio", "setting": "primary AML cells; primary AML cells patient 2, day 1, H1 = 10 μM hydroxyurea, untreated 3.7", "result": 4.2}, {"measurement": "CD33 MFI Ratio", "setting": "primary AML cells; primary AML cells patient 2, day 1, H2 = 100 μM hydroxyurea, untreated 3.7", "result": 4.5}, {"measurement": "CD33 MFI Ratio", "setting": "primary AML cells; primary AML cells patient 2, day 2, H1 = 10 μM hydroxyurea, untreated 4.8", "result": 4.2}, {"measurement": "CD33 MFI Ratio", "setting": "primary AML cells; primary AML cells patient 2, day 2, H2 = 100 μM hydroxyurea, untreated 4.8", "result": 5.1}, {"measurement": "up-regulation of CD33 in patient samples (in words)", "setting": "primary AML cells; three primary AML samples, day 1 and day 2 of incubation", "result": "up-regulation of CD33 in 1 of 3 patient samples"}]}, {"molecule": "lintuzumab: intact humanized CD33 antibody", "values": [{"measurement": "survival benefit", "setting": "CD33; phase III trial, combined with a triple chemotherapy regimen", "result": "no survival benefit"}, {"measurement": "clinical response", "setting": "CD33; single-agent phase I and II trial", "result": "complete remission in individual patients"}]}, {"molecule": "Cc1[nH]c2ccccc2c1CCNCc1ccc(/C=C/C(=O)NO)cc1", "note": "[panobinostat]", "values": [{"measurement": "sensitivity to AMG 330-induced cytotoxicity", "setting": "OCI-AML3 cells", "result": "modestly more sensitive"}, {"measurement": "sensitivity to AMG 330-induced cytotoxicity", "setting": "KG-1a cells [1]", "result": "modestly more sensitive"}]}, {"molecule": "Nc1ncn([C@@H]2O[C@H](CO)[C@@H](O)[C@H]2O)c(=O)n1", "note": "[azacitidine, 5-azacytidine]", "values": [{"measurement": "CD33 expression", "setting": "KG-1a cells [2]", "result": "significant increase"}, {"measurement": "lintuzumab-mediated ADCC", "setting": "AML target cells", "result": "improved"}, {"measurement": "CD33 expression", "setting": "AML cells or macrophages", "result": "did not affect"}]}, {"molecule": "blinatumomab: bispecific antibody directed at CD19 and the CD3 component of the T-cell receptor complex", "values": [{"measurement": "therapeutic efficacy", "setting": "[3]", "result": "therapeutic efficacy was shown"}]}]}
